{
  "source": "patent US20030225007A1",
  "about": "“Sulfonamide derivatives of 3-substituted imidazol[1,2-d]-1,2,4-thiadiazoles and 3-substituted-[1,2,4] thiadiazolo[4,5-a] benzimidazole as inhibitors of fibrin cross-linking and transglutaminases” (Apotex Inc., priority 2002, published 2003)",
  "tested_on": "fibrin cross-linking in human plasma clots",
  "test": "Inhibition of fibrin cross-linking in plasma clots (125I-fibrinogen, SDS-PAGE)",
  "assay_type": "biochemical",
  "details": "platelet-depleted and platelet-rich human plasma clots; inactivator at 40, 80 and 160 μM, added before thrombin and CaCl2",
  "method": "Citrated human plasma (0.3 mL) containing 2-4 μg/mL of ^125I-labeled fibrinogen (specific activity approx. 200 μCi/mg, at least 85% clotability, Amersham Pharmacia Biotech UK Ltd.) was clotted by the addition of CaCl2 (6.4 μL) to a final concentration of 50 mM and thrombin (6.2 μL) to a final concentration of 5 units/mL. Solutions of Factor XIIIa inactivators in DMSO were added just prior to the addition of thrombin and CaCl2. In some cases the inactivator was dissolved and added to plasma in water. To these samples, DMSO (3.2 μL) was added, to make 1% final concentration. Conversely, water (3.2 μL) was added to clots to which inactivator was added in DMSO. In control samples both DMSO (3.2 μL) and water (3.2 μL) were added in place of the inactivator solution. Typically, only 20 μL of the mixture was withdrawn before clotting (the remainder of the solution was used for the fibrinolysis assay) and incubated at 37° C. for 30 min.\n100 μL of 9 M urea containing 40 mM DTT was added and the solutions were incubated at 37° C. until the clots were completely dissolved. The samples were analyzed on SDS-PAGE gels using a standard procedure. The amount of radioactivity in each electrophoretic band was quantitated using a Storm 820 (Molecular Dynamics) autoradiography system after exposing the gel to a Kodak Storage Phosphor Screen. […]",
  "data": [
    {"smiles": "O=C(O)CN(CCCCCCNS(=O)(=O)c1ccccc1[N+](=O)[O-])c1nsc2nccn12", "note": "[H / CH2CO2H / 2-NO2-Ph, N-imidazo[1,2-d][1,2,4]thiadiazol-3-yl-N-(6-{[(2-nitrophenyl)sulfonyl]amino}hexyl)glycine]", "values": [
      {"measurement": "formation of high molecular weight polymer in plasma clots", "result": "inhibits the formation of high molecular weight polymer"}
    ]}
  ]
}
